Reference: patent US20060128695A1, “Cyclic nucleotide phosphodiesterase inhibitors, preparation and uses” (NEURO3D, priority 2002, published 2006)

Tests used:
Type in all cases: biochemical, bovine
PDE2 = target: T1, PDE2 (Bos taurus, UniProt P14099); experiment: Inhibition of PDE2, radioenzymatic phosphodiesterase assay; conditions: for inhibition at 10 µM: read-out: PDE2 percentage inhibition at 10 μM
T1 construct: PDE2 was prepared from bovine endothelial cells by the same methods; endogenous in cells; host or cells: bovine endothelial cells
T1 sequence (P14099 1-921): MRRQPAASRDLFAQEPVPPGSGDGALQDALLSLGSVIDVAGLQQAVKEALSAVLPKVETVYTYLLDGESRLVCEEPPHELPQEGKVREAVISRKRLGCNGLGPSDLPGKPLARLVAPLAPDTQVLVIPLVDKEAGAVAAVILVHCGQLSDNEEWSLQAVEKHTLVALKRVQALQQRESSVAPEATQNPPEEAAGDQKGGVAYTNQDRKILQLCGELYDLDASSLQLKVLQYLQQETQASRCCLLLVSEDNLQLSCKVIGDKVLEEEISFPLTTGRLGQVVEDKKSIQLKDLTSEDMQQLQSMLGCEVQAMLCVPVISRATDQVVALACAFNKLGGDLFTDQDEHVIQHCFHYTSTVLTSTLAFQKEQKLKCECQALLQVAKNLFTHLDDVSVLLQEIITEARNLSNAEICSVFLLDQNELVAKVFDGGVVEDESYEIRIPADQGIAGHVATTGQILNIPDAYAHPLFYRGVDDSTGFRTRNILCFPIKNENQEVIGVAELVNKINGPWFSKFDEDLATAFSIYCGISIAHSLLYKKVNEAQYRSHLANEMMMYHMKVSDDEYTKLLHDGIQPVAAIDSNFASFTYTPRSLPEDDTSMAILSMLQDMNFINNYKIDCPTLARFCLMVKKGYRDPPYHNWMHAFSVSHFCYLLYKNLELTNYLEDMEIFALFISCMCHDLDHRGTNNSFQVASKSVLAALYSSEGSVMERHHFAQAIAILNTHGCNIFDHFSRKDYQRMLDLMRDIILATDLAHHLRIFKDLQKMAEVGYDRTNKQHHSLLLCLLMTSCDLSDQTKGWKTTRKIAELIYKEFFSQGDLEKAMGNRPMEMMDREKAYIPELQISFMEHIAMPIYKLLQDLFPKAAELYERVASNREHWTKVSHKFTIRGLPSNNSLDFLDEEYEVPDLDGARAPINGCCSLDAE

PDE1 = experiment: Selectivity: inhibition of PDE1, radioenzymatic phosphodiesterase assay; conditions: 10 μM test compound; vascular smooth muscle
Procedure: (§1) A 3 g segment of bovine aortic media cut into pieces with scissors was homogenized with an ultra-turrax then a potter glass/glass homogenizer in 7 volumes by weight of buffer A containing a protease inhibitor cocktail (20 mM Tris-HCl, 0.25 M saccharose, 2 mM magnesium acetate, 1 mM dithiothreitol, 5 mM EGTA, 2000 U/ml aprotinin, 10 mg/l leupeptin and 10 mg/l soya trypsic inhibitor). The homogenizate was centrifuged at 105,000 g for 1 hour. The supernatant was loaded on a DEAE-Sephacel column (15 x 1.6 cm) pre-equilibrated with buffer B (buffer A without the saccharose, EGTA and protease inhibitors). The column was washed until there was no detectable absorption at 280 nm, then eluted with a linear gradient of NaCl (0-0.5 M) in buffer B. 3-ml fractions were collected and enzyme activity was determined under the conditions described hereinbelow to localize the different enzymes PDE1, PDE3, PDE4 and PDE5 which were aliquoted and frozen at −80° C. (Lugnier et al., Biochem. Phamacol., 1986, 35: 1746-1751). PDE2 was prepared from bovine endothelial cells by the same methods (Lugnier and Schini, Biochem. Pharmacol., 1990, 39: 75-84).
(§2) Cyclic nucleotide phosphodiesterase activity was determined by a radioenzymatic method using tritium-labelled cyclic GMP or AMP (1 μM) as substrate (Lugnier et al., 1986). ^3H-labelled adenosine or guanosine monophosphate formed by hydrolysis of the radiolabelled cyclic nucleotide was then converted to ^3H-labelled adenosine or guanosine in a second reaction with […] in excess. The nucleoside formed was separated from the nucleotides by anion exchange chromatography. Nucleoside radioactivity was determined by liquid scintillation counting. […]
(§3) The activity of the compounds was evaluated on other phosphodiesterase isoforms, particularly basal state or calmodulin-activated PDEl from vascular smooth muscle, PDE3, PDE4 and PDE5 from vascular smooth muscle.
(§4) The results obtained are presented in Tables 1 and 2 hereinbelow and are expressed as the percentage inhibition of enzymatic activity produced by […] of the test compound.

PDE3 = target: T2, PDE3 (Bos taurus, UniProt A0A3Q1M1E8); experiment: Selectivity: inhibition of PDE3, radioenzymatic phosphodiesterase assay; conditions: 10 μM test compound; vascular smooth muscle; read-out: PDE3 percentage inhibition at 10 μM
T2 sequence (A0A3Q1M1E8 1-1126): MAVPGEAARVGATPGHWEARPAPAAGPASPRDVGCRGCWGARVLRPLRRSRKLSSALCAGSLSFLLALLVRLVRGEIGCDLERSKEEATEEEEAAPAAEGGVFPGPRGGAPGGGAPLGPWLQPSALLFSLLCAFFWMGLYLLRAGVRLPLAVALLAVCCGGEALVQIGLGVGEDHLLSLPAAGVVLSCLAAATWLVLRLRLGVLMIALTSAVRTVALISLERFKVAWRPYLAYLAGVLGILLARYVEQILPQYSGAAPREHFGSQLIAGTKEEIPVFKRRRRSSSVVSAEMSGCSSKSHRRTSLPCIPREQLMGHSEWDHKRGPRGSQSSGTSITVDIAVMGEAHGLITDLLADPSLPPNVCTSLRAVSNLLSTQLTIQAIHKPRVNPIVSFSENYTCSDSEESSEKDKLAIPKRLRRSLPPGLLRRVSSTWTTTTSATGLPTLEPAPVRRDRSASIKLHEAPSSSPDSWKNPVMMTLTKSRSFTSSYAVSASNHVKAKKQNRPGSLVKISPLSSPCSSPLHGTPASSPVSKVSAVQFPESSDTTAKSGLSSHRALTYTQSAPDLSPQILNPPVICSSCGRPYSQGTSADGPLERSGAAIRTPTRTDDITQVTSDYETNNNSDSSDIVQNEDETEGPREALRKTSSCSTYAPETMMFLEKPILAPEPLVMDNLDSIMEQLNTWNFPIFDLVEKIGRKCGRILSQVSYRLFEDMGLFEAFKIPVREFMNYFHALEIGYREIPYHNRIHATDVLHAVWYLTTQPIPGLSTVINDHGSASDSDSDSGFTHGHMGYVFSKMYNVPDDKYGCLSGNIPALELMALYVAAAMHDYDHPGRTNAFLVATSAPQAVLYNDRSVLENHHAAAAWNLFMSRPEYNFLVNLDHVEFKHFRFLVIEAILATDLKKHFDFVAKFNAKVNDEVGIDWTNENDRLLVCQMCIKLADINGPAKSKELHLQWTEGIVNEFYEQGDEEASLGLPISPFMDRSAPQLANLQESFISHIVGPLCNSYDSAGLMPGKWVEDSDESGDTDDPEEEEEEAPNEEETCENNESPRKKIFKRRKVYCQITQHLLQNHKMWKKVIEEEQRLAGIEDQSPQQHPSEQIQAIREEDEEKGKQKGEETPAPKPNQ
Procedure: as §1, §2, §3, §4

PDE4 = experiment: Selectivity: inhibition of PDE4, radioenzymatic phosphodiesterase assay; conditions: vascular smooth muscle; for PDE4 percentage inhibition at 10 μM: 10 μM test compound; for IC50: cells without % sign
Procedure: as §1
(§5) Cyclic nucleotide phosphodiesterase activity was determined by a radioenzymatic method using tritium-labelled cyclic GMP or AMP (1 μM) as substrate (Lugnier et al., 1986). ^3H-labelled adenosine or guanosine monophosphate formed by hydrolysis of the radiolabelled cyclic nucleotide was then converted to ^3H-labelled adenosine or guanosine in a second reaction with […] in excess. The nucleoside formed was separated from the nucleotides by anion exchange chromatography. Nucleoside radioactivity was determined by liquid scintillation counting. Enzymatic incubations were carried out under conditions allowing no more than 15% hydrolysis of the substrate; each point was performed in duplicate.
as §3, §4

PDE5 = target: T3, PDE5 (Bos taurus, UniProt Q28156); experiment: Selectivity: inhibition of PDE5, radioenzymatic phosphodiesterase assay; conditions: 10 μM test compound; vascular smooth muscle; read-out: PDE5 percentage inhibition at 10 μM
T3 construct: localize the different enzymes PDE1, PDE3, PDE4 and PDE5 which were aliquoted and frozen; from tissue; host or cells: bovine aortic media (vascular smooth muscle)
Procedure: as §1, §5, §3, §4

Row | Structure (SMILES) | IC50 (PDE2) | PDE1 percentage inhibition at 10 μM (PDE1) | inhibition at 10 µM (PDE3) | PDE4 percentage inhibition at 10 μM (PDE4) | inhibition at 10 µM (PDE5) | IC50 (PDE4) | inhibition at 10 µM (PDE2)
1 | COc1cc2c(cc1OC)N(C)C(=O)CN=C2c1cccc(C(F)(F)F)c1 [Compound 4p, 7,8-dimethoxy-1-methyl-[5-(3-trifluoromethyl)phenyl]-1,3-dihydro-2H-1,4-benzodiazepin-2-one] | 1800 nM | 25% | 58% | 19% | 26% |  | 
2 | COc1cc2c(c(Br)c1OC)C(c1cccc(C(N)=O)c1)=NCC(=O)N2C [Compound 5b, 3-(6-bromo-7,8-dimethoxy-1-methyl-2-oxo-2,3-dihydro-1H-1,4-benzodiazepin-5-yl)benzamide] | 2100 nM |  |  |  | 21.6% |  | 
3 | COc1cc2c(cc1OC)N(C)C(=O)CN=C2c1cccc(C#CCCCC#N)c1 [Compound 6d, 6-[3-(7,8-dimethoxy-1-methyl-2-oxo-2,3-dihydro-1H-1,4-benzodiazepin-5-yl)phenyl]hex-5-ynenitrile] | 2400 nM |  |  | 55.7% |  |  | 
4 | COc1cc2c(cc1OC)N(C)C(=O)CN=C2c1cccc(-c2ccc(Cl)cc2)c1 [Compound 6j, 5-(4′-chloro-1,1′-biphenyl-3-yl)-7,8-dimethoxy-1-methyl-1,3-dihydro-2H-1,4-benzodiazepin-2-one] | 710 nM |  |  |  |  | 2800 nM | 
5 | COc1cc2c(cc1OC)N(C)C(=O)CN=C2c1cccc(-c2ccc(C#N)cc2)c1 [Compound 6m, 3′-(7,8-dimethoxy-1-methyl-2-oxo-2,3-dihydro-1H-1,4-benzodiazepin-5-yl)-1,1′-biphenyl-4-carbonitrile] |  |  |  | 37.3% |  |  | 82.3%
6 | COc1cc2c(cc1OC)N(C)C(=O)CN=C2c1cccc(-c2ccc(C(N)=O)cc2)c1 [Compound 6n, 3′-(7,8-dimethoxy-1-methyl-2-oxo-2,3-dihydro-1H-1,4-benzodiazepin-5-yl)-1,1′-biphenyl-4-carboxamide] |  |  |  | 58.7% |  |  | 84.6%
7 | CCN1C(=O)C(Cc2ccc(Cl)c(Cl)c2)N=C(c2ccccc2)c2cc(OC)c(OC)cc21 (stereo not shown) [Compound 7a, 3-(3,4-dichlorobenzyl)-1-ethyl-7,8-dimethoxy-5-phenyl-1,3-dihydro-2H-1,4-benzodiazepin-2-one] | 3130 nM |  |  |  |  | 6520 nM | 
8 | COc1cc2c(cc1OC)N(C)C(=O)CN=C2c1cccnc1 [Compound 17b, 7,8-dimethoxy-1-methyl-5-(3-pyridyl)-1,3-dihydro-1,4-benzodiazepin-2-one] | 1500 nM | 10% | 36% | 8% | 14% |  | 
